Results taken from patent US4614740A, “5H-2,3-benzodiazepine derivatives and pharmaceutical compositions containing the same” (Egis Gyogyszergyar, priority 1984, dated 1986).

Columns and labels:
[1] = anxiolytic effect, Vogel lick-conflict test; assay type: in vivo
Protocol: The anxiolytic effect was determined by the method of Vogel lick-conflict test/[Psychopharmacol. 21, 1 1979]. Tofizopam, 1-(3-chlorophenyl)-4-methyl-7,8-dimethoxy-5H-2,3-benzodiazepine and Chlorodiazepoxide 7-chloro-2-methylamino-5-phenyl-3H-1,4-benzodiazepine-4-oxide were used as reference agents.

mice [2] = experiment: antiaggressive effect, "fighting behaviour" test; assay type: in vivo; conditions: for ED50: Mus musculus, po; for Relative activity: antiaggressive effect, p.o., tofizopam = 1.0
Description: The antiaggressive effect was studied on mice by the so-called "fighting behaviour" test [J. Pharm. Exp. Ther. 125, 28 (1959)]. Tofizopam and 1-(3-chlorophenyl)-4-methyl-7,8-dimethoxy-5H-2,3-benzodiazepine were used as reference agents.

[3] = tested on: mice from the CFLP strain; experiment: spontaneous motor activity, motimeter of Animex type; assay type: in vivo; conditions: Mus musculus, po, 2 hours registration, Litchfield and Wilcoxon, limits between slashes, read-out: ED50 value (dose decreasing the spontaneous motor activity to half)
Protocol: The spontaneous motor activity was measured on a motimeter of Animex type. Groups of animal consisting of 3 mice from the CFLP strain weighing 20 to 23 g were starved for 24 hours and put to the apparatus. After a previous treatment of 10 minutes the amount of movements was registered continuously for 2 hours. The dose decreasing the spontaneous motor activity to half in comparison with the control group treated with vehiculum was determined.
The ED50 values were calculated by the method of Litchfield and Wilcoxon [J. Pharmacol. Exp. Ther. 96, 99 1949].

mice [4] = experiment: narcosis potentiating effect (sodium hexobarbital narcosis); assay type: in vivo; conditions: Mus musculus, po, 50 mg/kg sodium hexobarbital i.v., limits between slashes, read-out: ED50 (dose increasing the narcosis period of half of the test animals to double)
Protocol: The narcosis potentiating effect was studied on mice. The compounds were administered in 3 or 4 oral doses to 15-20 animals per dose. Narcosis was induced with 50 mg/kg of sodium hexobarbital injected intravenously into the animals. The ED50 value is the dose increasing the narcosis period of half of the test animals to double.

rats = experiment: hypnotic activity in rats (HD50); assay type: in vivo; conditions: Rattus norvegicus, iv
mice [5] = experiment: hypnotic activity in mice (HD50); assay type: in vivo; conditions: for ED50: Mus musculus, mice
[6] = muscle relaxant activity, "inclined screen" test; assay type: in vivo
[7] = muscle relaxant activity, rotarod test; assay type: in vivo; conditions: ip, read-out: ED50, rotarod test
[8] = tofizopam used in the therapy; cited from earlier work

Compound: COc1cc2c(cc1OC)C(c1cccc(N)c1)=NN=C(C)C2 [Example 2, 1-(3-Aminophenyl)-4-methyl-7,8-dimethoxy-5H-2,3-benzodiazepine]
- Number of electric shocks tolerated ([1]; 10 mg/kg i.p.): 4.2 ± 0.7
- Number of electric shocks tolerated ([1]; 25 mg/kg i.p.): 15.1 ± 1.9
- ED50 (mice [2]): 12.5 mg/kg
- Relative activity (mice [2]): 5.1
- ED50 [3]: 1.3 mg/kg
- ED50 (mice [4]): 8.2 mg/kg

Compound: COc1cc2c(cc1OC)C(c1ccc(N)c(C)c1)=NN=C(C)C2 [Example 10, 1-(3-Methyl-4-aminophenyl)-4-methyl-7,8-dimethoxy-5H-2,3-benzodiazepine]
- ED50 (mice [2]): 9.1 mg/kg
- Relative activity (mice [2]): 7.0
- ED50 [3]: 4.4 mg/kg
- ED50 (mice [4]): 7.4 mg/kg

Compound: O=C1CN=C(c2ccccc2)c2cc([N+](=O)[O-])ccc2N1 [Nitrazepam, 7-nitro-5-phenyl-1,3-dihydro-2H-1,4-benzodiazepin-2-one, reference compound]
- ED50 (rats): 96 mg/kg
- ED50 (mice [5]; ip): 150 mg/kg
- ED50 (mice [5]; iv): 75 mg/kg
- ED50 (mice [5]; po): 185 mg/kg

Compound: COc1cc2c(cc1OC)C(c1cccc(Cl)c1)=NN=C(C)C2 [1-(3-chlorophenyl)-4-methyl-7,8-dimethoxy-5H-2,3-benzodiazepine, reference compound]
- Number of electric shocks tolerated ([1]; 25 mg/kg i.p.): 9.9 ± 2.8
- Number of electric shocks tolerated ([1]; 50 mg/kg i.p.): 19.0 ± 2.3
- ED50 (mice [2]): 16 mg/kg
- Relative activity (mice [2]): 4.6
- ED50 [3]: 6.2 mg/kg
- ED50 (mice [4]): 16 mg/kg

Compound: CC1=NN=C(c2ccc(N)cc2)c2cc3c(cc2C1)OCO3 [Example 8, 1-(4-aminophenyl)-4-methyl-7,8-methylenedioxy-5H-2,3-benzodiazepine]
- ED50 ([6]; ip, read-out: ED50, inclined screen test): 47 mg/kg
- muscle relaxant activity (in words) ([6]; versus Zoxazolamine, inclined screen and rotarod): more potent than the reference substance Zoxazolamine
- ED50 [7]: 24 mg/kg
- ED50 (rats): 40 mg/kg
- ED50 (mice [5]; ip): 70 mg/kg
- ED50 (mice [5]; iv): 40 mg/kg
- ED50 (mice [5]; po): 140 mg/kg
- hypnotic activity (in words) (mice [5]; mice and rats): significant hypnotic activity
- ED50 [3]: 48 mg/kg
- ED50 (mice [4]): 7.4 mg/kg

Compound: CNC1=Nc2ccc(Cl)cc2C(c2ccccc2)=[N+]([O-])C1 [Chlorodiazepoxide, 7-chloro-2-methylamino-5-phenyl-3H-1,4-benzodiazepine-4-oxide, reference compound]
- Number of electric shocks tolerated ([1]; 5 mg/kg i.p.): 9.7 ± 3.7
- Number of electric shocks tolerated ([1]; 10 mg/kg i.p.): 27.5 ± 2.5

Compound: COc1cc2c(cc1OC)C(C)C(C)=NN=C2c1ccc(N)cc1 (stereo not drawn) [Example 11, 1-(4-Aminophenyl)-4,5-dimethyl-7,8-dimethoxy-5H-2,3-benzodiazepine]
- ED50 (mice [2]): 16 mg/kg
- Relative activity (mice [2]): 4.6

Compound: COc1cc2c(cc1OC)C(c1ccc(C)c(N)c1)=NN=C(C)C2 [Example 15, 1-(3-Amino-4-methylphenyl)-4-methyl-7,8-dimethoxy-5H-2,3-benzodiazepine]
- ED50 (mice [2]): 17 mg/kg
- Relative activity (mice [2]): 3.8
- ED50 [3]: 9.7 mg/kg
- ED50 (mice [4]): 25 mg/kg

Compound: CCC1C(C)=NN=C(c2ccc(OC)c(OC)c2)c2cc(OC)c(OC)cc21 (stereo not drawn) [Tofizopam, 1-(3,4-dimethoxyphenyl)-4-methyl-5-ethyl-7,8-dimethoxy-5H-2,3-benzodiazepine, reference compound]
- Number of electric shocks tolerated ([1]; 25 mg/kg i.p.): 3.6 ± 0.4
- Number of electric shocks tolerated ([1]; 50 mg/kg i.p.): 19.8 ± 3.7
- ED50 (mice [2]): 74 mg/kg
- Relative activity (mice [2]): 1.0
- further central nervous character (in words), reference drug [8]: in addition to the anxiolytic effect, a weak antidepressant activity
- ED50 [3]: 22 mg/kg
- ED50 (mice [4]): 38 mg/kg

Compound: COc1cc2c(cc1OC)C(c1ccc(N)c(Cl)c1)=NN=C(C)C2 [Example 18, 1-(3-Chloro-4-aminophenyl)-4-methyl-7,8-dimethoxy-5H-2,3-benzodiazepine]
- Number of electric shocks tolerated ([1]; 2.5 mg/kg i.p.): 7.6 ± 3.0
- Number of electric shocks tolerated ([1]; 5 mg/kg i.p.): 8.3 ± 1.0
- ED50 (mice [2]): 7.9 mg/kg
- Relative activity (mice [2]): 8.1
- ED50 (mice [4]): 7.6 mg/kg

Compound: COc1cc2c(cc1OC)C(c1ccc(N)cc1)=NN=C(C)C2 [Example 1, 1-(4-aminophenyl)-4-methyl-7,8-dimethoxy-5H-2,3-benzodiazepine]
- Number of electric shocks tolerated ([1]; 2.5 mg/kg i.p.): 4.1 ± 0.7
- Number of electric shocks tolerated ([1]; 5 mg/kg i.p.): 13.9 ± 2.7
- Number of electric shocks tolerated ([1]; 10 mg/kg i.p.): 19.7 ± 2.9
- ED50 (mice [2]): 8.1 mg/kg
- Relative activity (mice [2]): 7.9
- ED50 [3]: 3.2 mg/kg
- ED50 (mice [4]): 4.8 mg/kg
